Measured values published in US11459335B2, “N/O-linked Degrons and Degronimers for protein degradation” (C4 Therapeutics, Inc., priority 2017, dated 2022).
Each block holds one molecule with its values, some of them ahead of it.

Target: CRBN-DDB1 (Homo sapiens (Human), UniProt Q96SW2)
Experiment: Fluorescence polarization (FP) assay for compound ligand binding to CRBN-DDB1
Conditions: FP displacement of (−)-Thalidomide-Alexa Fluor or Pomalidomide-fluorescein probe (5 nM), 400 nM CRBN-DDB1, 60 min room temperature
Description: Measuring compound ligand binding to CRBN-DDB1 was carried out using an established sensitive and quantitative in vitro fluorescence polarization (FP) based binding assay. […] Compounds were dispensed from serially diluted DMSO stock into black 384-well compatible fluorescence polarization plates using an Echo acoustic dispenser. Compound binding to CRBN-DDB1 was measured by displacement of either a (−)-Thalidomide-Alexa Fluor® or Pornalidomide-fluorescein conjugated probe dye. […] Matching control wells excluding CRBN-DDB1 were used to correct for background fluorescence. Plates were read on an Envision plate reader with appropriate FP filter sets. The corrected S (perpendicular) and P (parallel) values were used to calculate fluorescence polarization (FP) with the following equation: FP=1000*(S−G*P)/(S+G*P).

[1] = Additional Compounds of the Present Invention
[2] = Degrons, Compounds of the Present Invention

Chain of CRBN-DDB1 (Q96SW2 whole entry): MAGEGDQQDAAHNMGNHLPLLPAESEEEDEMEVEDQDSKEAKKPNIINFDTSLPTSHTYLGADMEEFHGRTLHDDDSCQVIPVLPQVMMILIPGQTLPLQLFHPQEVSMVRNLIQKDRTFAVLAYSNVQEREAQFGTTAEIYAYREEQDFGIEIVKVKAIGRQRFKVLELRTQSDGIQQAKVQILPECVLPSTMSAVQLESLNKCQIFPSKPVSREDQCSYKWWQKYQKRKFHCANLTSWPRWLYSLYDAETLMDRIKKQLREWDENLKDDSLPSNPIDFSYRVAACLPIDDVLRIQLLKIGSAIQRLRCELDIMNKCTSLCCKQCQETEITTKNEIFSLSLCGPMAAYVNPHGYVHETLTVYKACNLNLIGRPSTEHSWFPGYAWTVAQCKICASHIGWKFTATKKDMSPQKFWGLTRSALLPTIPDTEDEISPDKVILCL
Chain of CRBN-DDB1 (Q16531 whole entry partner): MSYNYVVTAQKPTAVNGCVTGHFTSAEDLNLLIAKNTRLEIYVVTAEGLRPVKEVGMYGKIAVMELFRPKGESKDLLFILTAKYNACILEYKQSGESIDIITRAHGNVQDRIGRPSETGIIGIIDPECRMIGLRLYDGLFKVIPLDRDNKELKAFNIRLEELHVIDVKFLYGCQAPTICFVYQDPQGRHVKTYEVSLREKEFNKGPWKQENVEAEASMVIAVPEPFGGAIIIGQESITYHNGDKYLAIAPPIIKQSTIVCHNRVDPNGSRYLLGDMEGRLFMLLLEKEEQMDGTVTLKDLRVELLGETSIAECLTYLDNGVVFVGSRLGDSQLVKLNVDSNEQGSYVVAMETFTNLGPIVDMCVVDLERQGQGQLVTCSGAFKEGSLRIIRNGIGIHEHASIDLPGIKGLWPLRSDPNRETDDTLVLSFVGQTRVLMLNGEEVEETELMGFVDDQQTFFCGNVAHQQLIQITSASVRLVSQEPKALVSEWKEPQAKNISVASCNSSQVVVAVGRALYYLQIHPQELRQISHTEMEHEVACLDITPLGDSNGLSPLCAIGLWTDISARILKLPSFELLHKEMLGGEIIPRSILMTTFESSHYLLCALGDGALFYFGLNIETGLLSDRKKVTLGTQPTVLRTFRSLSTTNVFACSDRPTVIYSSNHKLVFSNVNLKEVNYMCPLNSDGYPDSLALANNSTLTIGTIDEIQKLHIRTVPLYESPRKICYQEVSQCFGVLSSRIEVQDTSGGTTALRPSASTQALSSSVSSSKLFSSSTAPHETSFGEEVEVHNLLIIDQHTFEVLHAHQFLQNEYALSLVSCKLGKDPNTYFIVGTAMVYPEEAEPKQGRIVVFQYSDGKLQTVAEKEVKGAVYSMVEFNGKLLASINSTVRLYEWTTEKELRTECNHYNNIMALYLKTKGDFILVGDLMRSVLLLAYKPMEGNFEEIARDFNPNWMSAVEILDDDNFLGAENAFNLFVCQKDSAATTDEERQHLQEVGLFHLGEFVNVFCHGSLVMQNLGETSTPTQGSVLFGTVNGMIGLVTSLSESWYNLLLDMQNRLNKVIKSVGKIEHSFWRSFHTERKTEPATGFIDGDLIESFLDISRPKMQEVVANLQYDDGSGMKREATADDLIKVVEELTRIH

Compound: O=C1CCC(Oc2ccccc2)C(=O)N1 (stereo not drawn) [Compound 129]
Kd [1]: 10 to 50 µM

Compound: CN(C1CN(C(=O)OC(C)(C)C)C1)C1CCC(=O)NC1=O (stereo not drawn) [Compound 98]
Kd [2]: 50 to 100 µM

Compound: CN1Cc2ccc(NC3CCC(=O)NC3=O)cc2C1=O (stereo not drawn) [Compound 93]
Kd [2]: 50 to 100 µM

Compound: O=C1CCC(Nc2ccc3c(c2)CCNC3)C(=O)N1 (stereo not drawn) [Compound 83]
Kd [2]: 10 to 50 µM

Compound: CC(C)(C)OC(=O)N1Cc2cnc(NC3CCC(=O)NC3=O)nc2C1 (stereo not drawn) [Compound 117]
Kd [2]: 50 to 100 µM

Compound: O=C1CCC(Nc2cc(C(=O)N3CCCC3)ccn2)C(=O)N1 (stereo not drawn) [Compound 119]
Kd [2]: 50 to 100 µM

Compound: CC(C)(C)OC(=O)N1CCC(n2cc(NC3CCC(=O)NC3=O)cn2)CC1 (stereo not drawn) [Compound 73]
Kd [2]: 50 to 100 µM

Compound: COc1cc(OC)nc(NC2CCC(=O)NC2=O)n1 (stereo not drawn) [Compound 113]
Kd [2]: 50 to 100 µM

Compound: CN1CCN(c2ccc(OC3CCC(=O)NC3=O)cc2)CC1 (stereo not drawn) [Compound 130]
Kd [1]: 10 to 50 µM

Compound: CC(=O)c1cc(C)ccc1OC1CCC(=O)NC1=O (stereo not drawn) [Compound 146]
Kd [1]: 50 to 100 µM

Compound: COC(=O)c1ccccc1OC1CCC(=O)NC1=O (stereo not drawn) [Compound 155]
Kd [1]: 50 to 100 µM

Compound: O=C1CC[C@H](O[C@H]2CCN(c3ccccc3)C2=O)C(=O)N1 (single isomer, unassigned) [Compound 162, 3-(2-Oxo-1-phenyl-pyrrolidin-3-yloxy)-piperidine-2,6-dione]
Kd [1]: 10 to 50 µM

Compound: CC(C)(C)OC(=O)N1CCN(c2ccc(NC3CCC(=O)NC3=O)cn2)CC1 (stereo not drawn) [Compound 156, 4-[5-(2,6-Dioxo-piperidin-3-ylamino)-pyridin-2-yl]-piperazine-1-carboxylic Acid tert-butyl Ester]
Kd [1]: 10 to 50 µM

Compound: CN(C1CC(=O)N(c2ccccc2)C1)C1CCC(=O)NC1=O (stereo not drawn) [Compound 105]
Kd [2]: 50 to 100 µM

Compound: O=C1CCC(Nc2ccc3cccnc3c2)C(=O)N1 (stereo not drawn) [Compound 163]
Kd [1]: 10 to 50 µM

Compound: Cn1cnc2cc(OC3CCC(=O)NC3=O)ccc21 (stereo not drawn) [Compound 142]
Kd [1]: 10 to 50 µM

Compound: Cc1ccn(-c2ccc(OC3CCC(=O)NC3=O)cc2)n1 (stereo not drawn) [Compound 143]
Kd [1]: 10 to 50 µM

Compound: O=C1CCC(Nc2ccc(N3CCNCC3)nc2)C(=O)N1 (stereo not drawn) [Compound 158, 3-(6-Piperazin-1-yl-pyridin-3-ylamino)-piperidine-2,6-dione]
Kd [1]: 10 to 50 µM

Compound: CN(c1ccc(F)cc1F)C1CCC(=O)NC1=O (stereo not drawn) [Compound 2]
Kd [2]: 50 to 100 µM

Compound: COc1ccc(C(C)(C)C)cc1NC1CCC(=O)NC1=O (stereo not drawn) [Compound 25]
Kd [2]: 50 to 100 µM

Compound: Cn1nc(NC2CCC(=O)NC2=O)cc1-c1ccccc1 (stereo not drawn) [Compound 157, 3-(1-Methyl-5-phenyl-1H-pyrazol-3-ylamino)-piperidine-2,6-dione]
Kd [1]: 10 to 50 µM

Compound: CS(=O)(=O)c1cccc(OC2CCC(=O)NC2=O)c1 (stereo not drawn) [Compound 144]
Kd [1]: 10 to 50 µM

Compound: CC(=O)c1ccccc1OC1CCC(=O)NC1=O (stereo not drawn) [Compound 153]
Kd [1]: 50 to 100 µM

Compound: CC(C)(C)OC(=O)N1CCN(c2nccc(NC3CCC(=O)NC3=O)n2)CC1 (stereo not drawn) [Compound 121]
Kd [2]: 50 to 100 µM

Compound: Cc1cnc(NC2CCC(=O)NC2=O)cn1 (stereo not drawn) [Compound 124]
Kd [2]: 10 to 50 µM

Compound: O=C1CC[C@@H](O[C@H]2CCN(c3ccccc3)C2=O)C(=O)N1 (single isomer, unassigned) [Compound 161, 3-(2-Oxo-1-phenyl-pyrrolidin-3-yloxy)-piperidine-2,6-dione]
Kd [1]: 50 to 100 µM

Compound: CN1CC(N(C)C2CCC(=O)NC2=O)CC1=O (stereo not drawn) [Compound 104]
Kd [2]: 50 to 100 µM

Compound: CC(C)(C)OC(=O)N1CCN(c2ccc(COC3CCC(=O)NC3=O)cc2)CC1 (stereo not drawn) [Compound 131, 4-[4-(2,6-Dioxo-piperidin-3-yloxymethyl)-phenyl]-piperazine-1-carboxylic Acid tert-butyl Ester]
Kd [1]: 10 to 50 µM

Compound: COc1ccc(N(C)C2CCC(=O)NC2=O)c(OC)c1 (stereo not drawn) [Compound 69]
Kd [2]: 10 to 50 µM

Compound: O=C1CCC(Nc2ccc(N3CCNCC3)cc2)C(=O)N1 (stereo not drawn) [Compound 89]
Kd [2]: 10 to 50 µM

Compound: O=C1CCC(Nc2ccccc2CN2CCCC2)C(=O)N1 (stereo not drawn) [Compound 71]
Kd [2]: 10 to 50 µM

The remaining lines, values ahead:

Kd [2]: 10 to 50 µM
Compound: O=C1CCC(Nc2ccccc2)C(=O)N1 (stereo not drawn) [Compound 125]

Kd [2]: 10 to 50 µM
Compound: CC(C)(C)OC(=O)N1CCC(c2ccc(NC3CCC(=O)NC3=O)nc2)CC1 (stereo not drawn) [Compound 123]

Kd [2]: 10 to 50 µM
Compound: O=C1CCC(Nc2ccc(C3CCNCC3)cn2)C(=O)N1 (stereo not drawn) [Compound 84]

Kd [2]: 10 to 50 µM
Compound: O=C1CCC(Nc2ccn(-c3ccccc3)n2)C(=O)N1 (stereo not drawn) [Compound 114]

Kd [2]: 10 to 50 µM
Compound: CN(c1ccc(F)cc1)C1CCC(=O)NC1=O (stereo not drawn) [Compound 17]

Kd [2]: 10 to 50 µM
Compound: Cn1nc(NC2CCC(=O)NC2=O)c2ccccc21 (stereo not drawn) [Compound 116]

Kd [2]: 10 to 50 µM
Compound: Cn1cnc2cc(NC3CCC(=O)NC3=O)ccc21 (stereo not drawn) [Compound 78]

Kd [2]: 10 to 50 µM
Compound: O=C1CCC(Nc2cnn(-c3ccccc3)c2)C(=O)N1 (stereo not drawn) [Compound 75]

Kd [2]: 10 to 50 µM
Compound: CN(C1CN(c2ccccc2)C1)C1CCC(=O)NC1=O (stereo not drawn) [Compound 103]

Kd [2]: 10 to 50 µM
Compound: CN(c1cccc(N2CCNCC2)c1)C1CCC(=O)NC1=O (stereo not drawn) [Compound 87]

Kd [2]: 10 to 50 µM
Compound: O=C1CCC(Nc2ccc(F)cc2)C(=O)N1 (stereo not drawn) [Compound 8]

Kd [2]: 10 to 50 µM
Compound: O=C1CCC(Nc2cccc(CN3CCCCC3)c2)C(=O)N1 (stereo not drawn) [Compound 72]

Kd [2]: 10 to 50 µM
Compound: COc1ccc(C(F)(F)F)cc1NC1CCC(=O)NC1=O (stereo not drawn) [Compound 24]

Kd [2]: 10 to 50 µM
Compound: O=C1CCC(Nc2ccccc2N2CCOCC2)C(=O)N1 (stereo not drawn) [Compound 14]

Kd [2]: 10 to 50 µM
Compound: O=C1CCC(Nc2ccccc2OC(F)(F)F)C(=O)N1 (stereo not drawn) [Compound 21]

Kd [2]: 10 to 50 µM
Compound: O=C1CCC(Nc2cccnc2)C(=O)N1 (stereo not drawn) [Compound 115]

Kd [2]: 10 to 50 µM
Compound: O=C1CCC(Nc2cnn(C3CCNCC3)c2)C(=O)N1 (stereo not drawn) [Compound 94]

Kd [2]: 10 to 50 µM
Compound: CN1CCc2ccc(NC3CCC(=O)NC3=O)cc2C1=O (stereo not drawn) [Compound 76]

Kd [2]: 10 to 50 µM
Compound: NCc1cccc(NC2CCC(=O)NC2=O)c1 (stereo not drawn) [Compound 91]

Kd [2]: 10 to 50 µM
Compound: Cn1cnc2c(NC3CCC(=O)NC3=O)cccc21 (stereo not drawn) [Compound 74]

Kd [2]: 10 to 50 µM
Compound: CN(CC(=O)Nc1ccccc1)C1CCC(=O)NC1=O (stereo not drawn) [Compound 108]

Kd [2]: 10 to 50 µM
Compound: NCc1ccc(NC2CCC(=O)NC2=O)cc1 (stereo not drawn) [Compound 90]

Kd [2]: 10 to 50 µM
Compound: O=C1CCC(Nc2ccc3ccccc3n2)C(=O)N1 (stereo not drawn) [Compound 120]

Kd [2]: 10 to 50 µM
Compound: O=C1CCC(Nc2c(F)cccc2F)C(=O)N1 (stereo not drawn) [Compound 63]

Kd [2]: 10 to 50 µM
Compound: O=C1CCC(Nc2cccnc2)C(=O)N1 (stereo not drawn) [Compound 80]

Kd [2]: 10 to 50 µM
Compound: CN(CC(N)=O)C1CCC(=O)NC1=O (stereo not drawn) [Compound 110]
